Where only a bound is given, the exact number is not on record here.

As usually defined, the Ki is the dissociation constant of the complex between target and ligand, obtained from inhibition or displacement. By inhibition is commonly meant the change of the read-out against control, counted positive when it falls.

Assay type in all cases: biochemical
For one test, the target named is T1, activated JNK3 (Homo sapiens, UniProt P53779).
T1 construct: One such construct encodes amino acid residues Ser40-Glu402 of JNK3α1 and is preceded by Met and Gly residues; Met-Gly (initiator methionine and added glycine) (N); made in house; host or cells: E. coli BL21 (DE3)
T1 sequence (P53779 40-402): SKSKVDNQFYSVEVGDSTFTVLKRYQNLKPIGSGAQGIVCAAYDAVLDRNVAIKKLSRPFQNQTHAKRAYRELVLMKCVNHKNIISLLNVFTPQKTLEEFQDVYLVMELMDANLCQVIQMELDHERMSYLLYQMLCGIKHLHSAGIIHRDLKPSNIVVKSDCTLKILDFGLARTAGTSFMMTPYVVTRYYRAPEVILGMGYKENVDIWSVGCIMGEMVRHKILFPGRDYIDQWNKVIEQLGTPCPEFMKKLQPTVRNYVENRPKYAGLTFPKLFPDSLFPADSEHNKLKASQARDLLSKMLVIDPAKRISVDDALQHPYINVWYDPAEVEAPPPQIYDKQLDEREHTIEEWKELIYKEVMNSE
Nature of the test: JNK inhibition assay (spectrophotometric coupled-enzyme assay). The following applies: for Ki: 10 nM activated JNK3, 10 μM ATP, read-out: Activity in the JNK3 Inhibition Assay (Ki rating A-C). The method in brief:
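Activated (doubly phosphorylated, MKK7(DD)-activated) human JNK3, 10 nM, preincubated 10 min at 30 °C with inhibitor in 0.1 M HEPES pH 7.5, 10 mM MgCl2, 200 μM EGF receptor peptide, PK/LDH-coupled. Started with 10 μM ATP; A340 decrease followed at 30 °C. Ki from competitive inhibition model fit.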

For test [1], the target named is T2, full length recombinant human Src kinase (Homo sapiens, UniProt P12931).
T2 construct: full length recombinant human Src kinase; purchased Upstate Biotechnology 14-117; host or cells: baculo viral cells (baculovirus expression)
T2 sequence (P12931 whole entry): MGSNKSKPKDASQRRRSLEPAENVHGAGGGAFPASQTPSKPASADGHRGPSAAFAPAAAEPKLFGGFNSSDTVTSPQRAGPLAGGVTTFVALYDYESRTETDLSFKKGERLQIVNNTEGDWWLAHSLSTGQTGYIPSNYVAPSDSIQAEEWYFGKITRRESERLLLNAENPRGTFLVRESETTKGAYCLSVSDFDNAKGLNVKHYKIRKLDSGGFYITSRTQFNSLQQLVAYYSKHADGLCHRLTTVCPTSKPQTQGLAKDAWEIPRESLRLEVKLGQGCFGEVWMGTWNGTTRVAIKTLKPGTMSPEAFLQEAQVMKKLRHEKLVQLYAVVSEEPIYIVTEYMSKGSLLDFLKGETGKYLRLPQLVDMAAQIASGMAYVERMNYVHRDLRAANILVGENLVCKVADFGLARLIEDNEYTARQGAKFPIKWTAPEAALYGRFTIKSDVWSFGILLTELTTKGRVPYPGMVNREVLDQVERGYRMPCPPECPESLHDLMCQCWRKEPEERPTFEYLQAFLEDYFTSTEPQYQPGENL
The test is described as follows: Src inhibition assay (33P incorporation into poly Glu-Tyr). The following applies: for Ki: 10 μM ATP, read-out: Activity in the SRC Inhibition Assay (Ki rating A-C); for inhibition at 2 µM: at a 2 μM inhibitor concentration, read-out: Activity in the SRC Inhibition Assay (percent inhibition rating D-F). The method, then: The compounds were assayed as inhibitors of full length recombinant human Src kinase (from Upstate Biotechnology, cat. no. 14-117) expressed and purified from baculo viral cells. Src kinase activity was monitored by following the incorporation of ^33P from ATP into the tyrosine of a random poly Glu-Tyr polymer substrate of composition, Glu:Tyr=4:1 (Sigma, cat. no. P-0275). The following were the final concentrations of the assay components: 0.05 M HEPES, pH 7.6, 10 mM MgCl2, 2 mM DTT, 0.25 mg/ml BSA, 10 μM ATP (1-2 μCi ^33P-ATP per reaction), 5 mg/ml poly Glu-Tyr, and 1-2 units of recombinant human Src kinase. In a typical assay, all the reaction components with the exception of ATP were pre-mixed and aliquoted into assay plate wells. […] The assay plate was incubated at 30° C. for 10 min before initiating the reaction with ^33P-ATP. After 20 min of reaction, the reactions were quenched with 150 μl of 10% trichloroacetic acid (TCA) containing 20 mM Na3PO4. The quenched samples were then transferred to a 96-well filter plate (Whatman, UNI-Filter GF/F Glass Fiber Filter, cat no. 7700-3310) installed on a filter plate vacuum manifold. Filter plates were washed four times with 10% TCA containing 20 mM Na3PO4 and then 4 times with methanol. 200 μl of scintillation fluid was then added to each well. The plates were sealed and the amount of radioactivity associated with the filters was quantified on a TopCount scintillation counter.

Test [2] addresses Glycogen Synthase Kinase 3 (GSK-3) (Homo sapiens, UniProt P49841). The test is described as follows: GSK-3 inhibition assay (standard coupled enzyme assay). The note with it: 60 nM GSK-3, 10 μM ATP; read-out: GSK-3 Inhibitory Activity (Ki rating A-C). On the procedure: Compounds were screened in the following manner for their ability to inhibit Glycogen Synthase Kinase 3 (GSK-3) using a standard coupled enzyme assay (Fox et al (1998) Protein Sci 7, 2249). To an assay stock buffer solution containing 0.1M HEPES 7.5, 10 mM MgCl2, 25 mM NaCl, 2.5 mM phosphoenolpyruvate, 300 μM NADH, 1 mM DTT, 30 μg/mL pyruvate kinase, 10 μg/mL lactate dehydrogenase, 300 μM peptide (HSSPHQp-SEDEEE, American Peptide, Sunnyvale, Calif.), and 60 nM GSK-3, was added a 30 μM solution of the compound in DMSO and the resulting mixture incubated at 30° C. for 5 min. The reaction was initiated by the addition of 10 μM ATP. The rates of reaction were obtained by monitoring absorbance at 340 nm over a 5 minute read time at 30° C. using a Molecular Devices plate reader (Sunnyvale, Calif.). The IC50 was determined from the rate data as a function of inhibitor concentration.

The next test concerns the target CDK-2/Cyclin A (Homo sapiens, UniProt P24941). The test is described as follows: CDK2 inhibition assay (standard coupled enzyme assay). The note with it: 25 nM CDK-2/Cyclin A; read-out: CDK2 Inhibitory Activity (Ki rating A-C). The essentials:
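Pyruvate kinase/lactate dehydrogenase-coupled assay in pH 7.5 HEPES with 100 μM peptide substrate and ATP […]; compound (30 μM final) preincubated 10 min at 30° C before adding CDK-2/Cyclin A to 25 nM.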

Test [3] has as its target T3, Lck kinase purified from bovine thymus (Bos taurus, UniProt Q3ZCM0).
T3 construct: Lck kinase purified from bovine thymus; purchased Upstate Biotechnology 14-106; host or cells: bovine thymus (tissue-purified)
The test is described as follows: Lck inhibition assay (33P incorporation into poly Glu-Tyr). The following applies: 10 μM ATP; read-out: Activity in the Lck Inhibition Assay (Ki rating A-C). The essentials: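 Filter-binding radiometric assay of 33P transfer from ATP to poly Glu-Tyr (4:1, 5 mg/ml) by bovine thymus Lck in 0.05 M HEPES pH 7.6, 10 mM MgCl2, 2 mM DTT, 0.25 mg/ml BSA, 10 μM ATP. After 10 min at 30° C, reaction started with 33P-ATP, run 20 min, quenched with TCA; filter-bound radioactivity counted by scintillation.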

Chain of Glycogen Synthase Kinase 3 (GSK-3) (P49841 whole entry): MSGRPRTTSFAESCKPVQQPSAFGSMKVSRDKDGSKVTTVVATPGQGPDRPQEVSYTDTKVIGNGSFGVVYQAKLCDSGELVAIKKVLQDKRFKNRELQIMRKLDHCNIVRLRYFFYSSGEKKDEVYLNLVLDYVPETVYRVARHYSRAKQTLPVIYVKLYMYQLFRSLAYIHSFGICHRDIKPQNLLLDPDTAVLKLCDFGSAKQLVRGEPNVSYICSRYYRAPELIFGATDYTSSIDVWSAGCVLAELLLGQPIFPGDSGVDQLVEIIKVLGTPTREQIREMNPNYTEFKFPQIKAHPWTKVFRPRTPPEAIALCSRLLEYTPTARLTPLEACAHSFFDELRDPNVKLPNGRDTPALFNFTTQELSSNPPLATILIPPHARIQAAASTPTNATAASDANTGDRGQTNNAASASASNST
T3 sequence (Q3ZCM0 1-509): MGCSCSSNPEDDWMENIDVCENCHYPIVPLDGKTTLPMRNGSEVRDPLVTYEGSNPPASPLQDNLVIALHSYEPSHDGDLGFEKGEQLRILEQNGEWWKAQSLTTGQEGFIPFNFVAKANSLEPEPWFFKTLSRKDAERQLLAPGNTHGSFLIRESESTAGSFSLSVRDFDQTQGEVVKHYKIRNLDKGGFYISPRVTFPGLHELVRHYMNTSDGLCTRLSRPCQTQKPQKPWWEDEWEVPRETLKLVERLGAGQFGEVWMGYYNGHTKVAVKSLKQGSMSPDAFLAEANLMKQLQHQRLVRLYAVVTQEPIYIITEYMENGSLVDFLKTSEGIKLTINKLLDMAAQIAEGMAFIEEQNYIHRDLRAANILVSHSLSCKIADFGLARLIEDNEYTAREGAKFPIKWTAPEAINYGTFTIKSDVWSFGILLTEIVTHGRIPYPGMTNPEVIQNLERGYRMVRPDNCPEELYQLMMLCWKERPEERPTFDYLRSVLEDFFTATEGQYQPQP

For `COc1cc(-c2ccnc(Nc3ccc(Cl)cc3)n2)cc(OC)c1OC` [Compound I-1], the Ki on activated JNK3 was 100 to 1000 nM; in test [1], > 1000 nM; in test [2] it was > 1000 nM; on CDK-2/Cyclin A, > 5000 nM.

For `COc1ccc(-c2cccc(F)c2)cc1Nc1nccc(-c2ccc(OC)c(OC)c2OC)n1` [II-64], the values for the Ki in test [1] and in test [2] were < 100 nM and > 1000 nM, respectively.

Turning to `COc1cc(Nc2nccc(-c3cc(OC)c(OC)c(OC)c3)n2)cc(OC)c1` [Compound I-12], the Ki at activated JNK3 is < 100 nM; in test [2] it was 100 to 1000 nM; on CDK-2/Cyclin A, > 5000 nM. Moreover, the inhibition at 2 µM in test [1] was < 33%.

Take `COc1ccc(Nc2nccc(-c3cc(OC)c4c(c3)OCCO4)n2)cc1` [Compound I-78]: on activated JNK3, the Ki was < 100 nM. Besides, in test [1], the inhibition at 2 µM was 24 to 66%.

For `COc1cc(-c2ccnc(Nc3ccc(Cl)nc3)n2)cc(OC)c1OC` [Compound I-61], the inhibition constant (Ki) at activated JNK3 was < 100 nM; at CDK-2/Cyclin A, > 5000 nM. The inhibition at 2 µM in test [1] is < 33%.

On to `CCOc1c(OC)cc(-c2ccnc(Nc3cccc(OC)c3)n2)cc1OC` [Compound I-50], for which, at activated JNK3, the Ki is < 100 nM. In addition, the inhibition at 2 µM in test [1] lay within 67 to 100%.

`COc1cc(-c2ccnc(Nc3cccc(Cl)c3)n2)cc2c1OCCO2` [Compound I-75]: the inhibition constant (Ki) (on activated JNK3; in test [2]) was < 100 nM each time. Besides, in test [1], the inhibition at 2 µM fell in the range of 67 to 100%.

For the compound `COc1cc(-c2ccnc(Nc3cccc(F)c3)n2)cc2c1OCCO2` [Compound I-79], on activated JNK3, the Ki is < 100 nM. Further, the inhibition at 2 µM in test [1] was 24 to 66%.

On to `COc1cc(-c2ccnc(Nc3cccc(F)c3)n2)cc(OC)c1OC` [Compound I-60], for which the Ki is < 100 nM on activated JNK3 and > 5000 nM on CDK-2/Cyclin A. For the same compound, in test [1], the inhibition at 2 µM was in the range of 67 to 100%.

Turning to `COc1cc(-c2ccnc(Nc3ccc(Cl)nc3)n2)cc(OC)c1O` [Compound I-73], the Ki on activated JNK3 is < 100 nM. In addition, the inhibition at 2 µM in test [1] lay within 24 to 66%.

As for `COc1ccc(-c2ccnc(Nc3cccc(Oc4ccccc4)c3)n2)c(OC)c1OC` [II-1], the Ki in test [1] and in test [3] was < 100 nM in each case.

Turning to `COc1cc(-c2ccnc(Nc3cccc(C)c3)n2)cc2c1OCCO2` [Compound I-81], at activated JNK3, the Ki was < 100 nM. Also, in test [1], the inhibition at 2 µM is 67 to 100%.

With `COc1ccc(Nc2nccc(-c3ccc(OC)c(OC)c3OC)n2)cc1-c1ccc(Cl)cc1` [II-68], the Ki in test [1] is 100 to 1000 nM; in test [2], < 100 nM.

Turning to `COc1cc(-c2ccnc(Nc3ccc(Cl)cc3)n2)cc2c1OCCO2` [Compound I-76], the Ki at activated JNK3 is < 100 nM. For the same compound, the inhibition at 2 µM in test [1] fell in the range of 24 to 66%.

With `COc1cc(-c2ccnc(Nc3ccccc3)n2)cc2c1OCCO2` [Compound I-74], the Ki on activated JNK3 is < 100 nM. Further, the inhibition at 2 µM in test [1] was in the range of 24 to 66%.

For `COc1ccc(Nc2nccc(-c3ccc(OC)c(OC)c3OC)n2)cc1-c1cccc(F)c1` [II-69], the Ki in test [1] and in test [2] was < 100 nM in each case.

`COc1ccc(Nc2nccc(-c3ccc(OC)c(OC)c3OC)n2)cc1-c1cccc(Cl)c1` [II-67]: the Ki in test [1] and in test [2] was < 100 nM each time.

As to `COc1cc(-c2ccnc(Nc3ccc(C)cc3)n2)cc2c1OCCO2` [Compound I-82], at activated JNK3, the Ki was < 100 nM. In addition, the inhibition at 2 µM in test [1] was < 33%.

For `COc1cc(-c2ccnc(Nc3ccc(F)cc3)n2)cc(OC)c1OC` [Compound I-3], the Ki on activated JNK3 was < 100 nM; in test [3] it was > 1000 nM; on CDK-2/Cyclin A, > 5000 nM. Further, the inhibition at 2 µM in test [1] is < 33%.

As to `COc1ccc(Nc2nccc(-c3cc(OC)c(OC)c(OC)c3)n2)cc1OC` [Compound I-64], on activated JNK3 (at a 2 μM inhibitor concentration), the “Activity in the JNK3 Inhibition Assay (percent inhibition rating D-F)” value was “F (percent inhibition of between 67% and 100%)”. In addition, the inhibition at 2 µM in test [1] is 67 to 100%. Moreover, in test [2], the Ki fell in the range of 100 to 1000 nM.

As to `COc1cc(-c2ccnc(Nc3cccc(F)c3F)n2)cc(OC)c1OC` [Compound I-13], the Ki at activated JNK3 was < 100 nM; on CDK-2/Cyclin A it was > 5000 nM. In addition, the inhibition at 2 µM in test [1] lay within 24 to 66%.

Consider `COc1cc(-c2ccnc(Nc3cccc(O)c3)n2)cc(OC)c1OC` [Compound I-58], for which the Ki on activated JNK3 is < 100 nM. For the same compound, in test [1], the inhibition at 2 µM fell in the range of 24 to 66%.

In the case of `COc1cc(-c2ccnc(Nc3ccc(F)cc3)n2)cc2c1OCCO2` [Compound I-80], at activated JNK3, the Ki is < 100 nM. The inhibition at 2 µM in test [1] was in the range of 24 to 66%.

For the compound `COc1cc(-c2ccnc(NC3CCCCC3)n2)cc(OC)c1OC` [Compound I-4], the Ki was 100 to 1000 nM at activated JNK3, > 1000 nM in test [1], > 1000 nM in test [2] and > 5000 nM on CDK-2/Cyclin A.

As to `COc1cc(-c2ccnc(Nc3ccc4c(c3)OCO4)n2)cc(OC)c1OC` [Compound I-63], on activated JNK3, the Ki was < 100 nM. Moreover, the inhibition at 2 µM in test [1] was 24 to 66%.

Take `COc1ccc(-c2ccnc(Nc3cccc(S(=O)(=O)c4ccccc4)c3)n2)c(OC)c1OC` [II-24]: the Ki is < 100 nM in test [1] and 100 to 1000 nM in test [3].

For the compound `COc1cc(-c2ccnc(Nc3cccc(Br)c3)n2)cc(OC)c1OC` [Compound I-59], the values for the Ki (on activated JNK3; in test [2]; at CDK-2/Cyclin A) were < 100 nM, < 100 nM and > 5000 nM, respectively. In addition, the inhibition at 2 µM in test [1] lay in the range of 67 to 100%.

Turning to `COc1ccc(-c2ccnc(Nc3cccc(-c4ccc(C)cc4)c3)n2)c(OC)c1OC` [II-63], the Ki in test [1] was < 100 nM; in test [3], 100 to 1000 nM.

For `COc1c(Br)cc(-c2ccnc(Nc3cccc(F)c3)n2)cc1Br` [Compound I-48], the Ki (at activated JNK3; in test [2]) was 100 to 1000 nM throughout. Also, the inhibition at 2 µM in test [1] was 24 to 66%.

For `COc1cc(-c2ccnc(Nc3ccc4ccccc4c3)n2)cc(OC)c1OC` [Compound I-62], the Ki on activated JNK3 is < 100 nM; in test [2], 100 to 1000 nM. In addition, in test [1], the inhibition at 2 µM was < 33%.

`COc1ccc(-c2ccnc(Nc3cc(-c4cccc(Cl)c4)ccc3F)n2)c(OC)c1OC` [II-66]: the Ki in test [1] and in test [2] was > 1000 nM each time.

Regarding `COc1ccc(-c2ccnc(Nc3cccc(-c4ccccc4C)c3)n2)c(OC)c1OC` [II-62], the Ki was 100 to 1000 nM in test [1], > 1000 nM in test [3] and > 5000 nM on CDK-2/Cyclin A.

Turning to `COc1ccc(-c2cccc(Cl)c2)cc1Nc1nccc(-c2ccc(OC)c(OC)c2OC)n1` [II-65], the Ki in test [1] was 100 to 1000 nM; in test [2], > 1000 nM.

These data come from patent US6949544B2, “Inhibitors of c-Jun N-terminal kinases (JNK) and other protein kinases” (Vertex Pharmaceuticals Incorporated, priority 2001, dated 2005).
